Measurements taken from patent US4820834A, “Benzodiazepine analogs” (priority 1987, dated 1989).
Like-named read-outs stand apart in the source and are kept apart here.

Tests used:
[1] = biological target: T1, Gastrin receptor (gastric glands) (Cavia porcellus, UniProt H0VZC5); experiment: Gastrin Receptor Binding in Guinea Pig Gastric Glands; set-up: species or system guinea pig (male Hartley)
T1 construct: The washed guinea pig gastric glands prepared as above were resuspended; from tissue; host or cells: guinea pig gastric mucosal glands (male Hartley)
T1 sequence (H0VZC5 1-426): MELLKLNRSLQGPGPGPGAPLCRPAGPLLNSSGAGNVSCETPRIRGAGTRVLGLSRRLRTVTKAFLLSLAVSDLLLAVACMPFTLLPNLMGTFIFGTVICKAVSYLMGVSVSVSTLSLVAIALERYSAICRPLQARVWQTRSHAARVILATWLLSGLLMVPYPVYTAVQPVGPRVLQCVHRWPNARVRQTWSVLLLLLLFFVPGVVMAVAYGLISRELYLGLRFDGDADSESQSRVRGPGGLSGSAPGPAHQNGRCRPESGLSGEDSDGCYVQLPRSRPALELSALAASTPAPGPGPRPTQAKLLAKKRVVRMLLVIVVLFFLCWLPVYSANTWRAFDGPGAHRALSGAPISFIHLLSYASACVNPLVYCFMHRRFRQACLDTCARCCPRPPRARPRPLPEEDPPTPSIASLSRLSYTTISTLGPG

[2] = biological target: T2, CCK receptor (brain, cerebral cortex) (Cavia porcellus, UniProt H0VZC5); experiment: biochemical; format: binding, Male Hartley guinea pigs
T2 construct: Cerebral cortex was dissected and used as a receptor source; from tissue; host or cells: guinea pig cerebral cortex membranes (male Hartley)
T2 sequence (H0VZC5 1-426): T1 sequence (H0VZC5 1-426)
Procedure, shortened: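 Guinea pig cerebral cortex homogenate as receptor source, with radiolabeled CCK-33 in HEPES buffer containing MgCl2, bacitracin, EGTA and 0.4% BSA. Incubation 2 h at 25°C; bound ligand pelleted by centrifugation and gamma-counted.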

CCK receptor (pancreas) = biological target: T3, CCK receptor (pancreas) (Rattus norvegicus, UniProt P30551); experiment: CCK Receptor Binding (Pancreas): inhibition of ^125 I-CCK-33 binding; set-up: species or system Male Sprague-Dawley rats
T3 construct: The whole pancreas was dissected free of fat tissue and was homogenized; from tissue; host or cells: rat pancreas membranes (Sprague-Dawley)
T3 sequence (P30551 1-444): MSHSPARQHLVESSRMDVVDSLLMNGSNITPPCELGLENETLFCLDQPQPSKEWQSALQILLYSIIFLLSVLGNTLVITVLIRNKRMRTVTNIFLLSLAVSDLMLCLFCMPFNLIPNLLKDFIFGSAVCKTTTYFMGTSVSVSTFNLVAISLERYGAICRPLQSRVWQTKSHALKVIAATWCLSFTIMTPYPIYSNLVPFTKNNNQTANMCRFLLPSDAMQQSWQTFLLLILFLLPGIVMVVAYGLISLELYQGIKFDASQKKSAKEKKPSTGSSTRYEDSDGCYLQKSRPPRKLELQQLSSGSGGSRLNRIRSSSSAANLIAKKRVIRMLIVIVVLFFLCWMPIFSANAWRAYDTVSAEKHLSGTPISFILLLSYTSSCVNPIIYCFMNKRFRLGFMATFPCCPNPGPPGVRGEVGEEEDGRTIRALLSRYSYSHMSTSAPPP
Procedure, shortened: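 Rat (male Sprague-Dawley) pancreatic membranes in 50 mM Tris HCl pH 7.7 with DTT, bacitracin, PMSF and o-phenanthroline; ^125I-Bolton Hunter-labelled CCK-33 as radioligand. Incubation 30 min at 37° C, separation by centrifugation, pellet gamma-counted; Scatchard analysis by diluting ^125I-CCK-33 with increasing CCK-33.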

[3] = ^125 I-gastrin, 25° C., 30 minutes, read-out: IC50 ^125 I-Gastrin Gastric Glands
[4] = read-out: IC50 ^125 I-CCK Brain; guinea pig cerebral cortex, ^125 I-CCK-33, 25° C., 2 hours
[5] = rat pancreas membranes, ^125 I-CCK-33, 37° C., 30 minutes; read-out: IC50 ^125 I-CCK Pancreas
[6] = IC50 ^125 I-CCK Brain, guinea pig cerebral cortex, ^125 I-CCK-33, 25° C., 2 hours
[7] = IC50 ^125 I-Gastrin Gastric Glands, 25° C., 30 minutes
[8] = IC50 ^125 I-CCK Pancreas, rat pancreas membranes, ^125 I-CCK-33, 37° C., 30 minutes
[9] = guinea pig cerebral cortex, ^125 I-CCK-33, 25° C., 2 hours; read-out: IC50 ^125 I-CCK Brain

In the case of `CN1C(=O)[C@@H](NC(=O)c2ccccc2Cl)N=C(c2ccccc2)c2ccccc21` [Example 150, 3(S)-(-)-3-(2-Chlorobenzoylamino)-1,3-dihydro-1-methyl-5-phenyl-2H-1,4-benzodiazepin-2-one], the IC50 [1, 3] is reported as 130 µM, the IC50 [2, 4] is reported as 83 µM and the IC50 (CCK receptor (pancreas); [5]) is reported as 1.7 µM.

`COc1cccc(NC(=O)NC2N=C(c3ccccc3)c3ccccc3N(C)C2=O)c1` (stereo not drawn) [Example 247, N-(2,3-Dihydro-1-methyl-2-oxo-5-phenyl-1H-1,4-benzodiazepin-3-yl)-N'-(3-methoxyphenyl)-urea] showed an IC50 [1, 3] of 0.0016 µM, an IC50 [2, 6] of 0.003 µM and an IC50 (CCK receptor (pancreas); [5]) of 0.0062 µM.

`CC(C)C[C@H]1N=C(c2ccccc2)c2cc(Cl)ccc2NC1=O` [Example 14, 7-Chloro-1,3-dihydro-3(R)-(2-methyl-1-propyl)-5-phenyl-2H-1,4-benzodiazepin-2-one] gave an IC50 [1, 7] of 12 µM, an IC50 [2, 6] of 60 µM and an IC50 (CCK receptor (pancreas); [8]) of 42 µM.

`CCN1C(=O)[C@@H](Cc2c[nH]c3ccccc23)N=C(c2ccccc2F)c2ccccc21` [Example 36, 1,3-Dihydro-1-ethyl-5-(2-fluorophenyl)-3(R)-(3'-indolyl)methyl-2H-1,4-benzodiazepin-2-one] was tested, and the IC50 [1, 7] was over 100 µM, the IC50 [2, 6] was 30 µM and the IC50 (CCK receptor (pancreas); [8]) was 0.3 µM.

Work on `CCOC(=O)C(C)N1C(=O)C(NC(=O)OCc2ccccc2)N=C(c2ccccc2)c2ccccc21` (stereo not drawn) [Example 241, 2,3-Dihydro-alpha-methyl-2-oxo-5-phenyl-3-((phenylmethoxy)carbonyl)amino-1H-1,4-benzodiazepine-1-acetic acid ethyl ester] yielded an IC50 [1, 3] of 0.95 µM, an IC50 [2, 9] of 1.4 µM and an IC50 (CCK receptor (pancreas); [8]) of 0.93 µM.

For `CN1C(=O)[C@H](NC(=O)c2ccc(Cl)cc2)N=C(c2ccccc2F)c2ccccc21` [Example 90, 3(R)-(-)-1,3-Dihydro-3-(4-chlorobenzoylamino)-5-(2-fluorophenyl)-1-methyl-2H-1,4-benzodiazepin-2-one], the IC50 [1, 3] was 5.2 µM, the IC50 [2, 6] was 11 µM and the IC50 (CCK receptor (pancreas); [5]) was 0.049 µM.

Compound `COc1cccc(CC(=O)N[C@H]2N=C(c3ccccc3)c3ccccc3N(C)C2=O)c1` [Example 268, (S)-N-(2,3-Dihydro-1-methyl-2-oxo-5-phenyl-1H-1,4-benzodiazepin-3-yl)-3-methoxybenzeneacetamide] has an IC50 [1, 3] of 0.42 µM, an IC50 [2, 9] of 2.1 µM and an IC50 (CCK receptor (pancreas); [8]) of 0.33 µM.

`O=C1Nc2ccc(Cl)cc2C(c2ccccc2)=N[C@@H]1COCc1ccccc1` [Example 15, 3(R)-Benzyloxymethyl-7-chloro-1,3-dihydro-5-phenyl-2H-1,4-benzodiazepin-2-one] gave an IC50 [1, 7] of 38 µM, an IC50 [2, 6] of 80 µM and an IC50 (CCK receptor (pancreas); [8]) of 60 µM.

With `CN1C(=O)C(NC(=O)c2ccc(C(C)(C)C)cc2)N=C(c2ccccc2F)c2ccccc21` (stereo not drawn) [Example 226, 4-(1,1-Dimethylethyl)-N-(5-(2-fluorophenyl)-2,3-dihydro-1-methyl-2-oxo-1H-1,4-benzodiazepin-3-yl)-benzamide] the IC50 [1, 3] was 6.4 µM, the IC50 [2, 9] was 2.3 µM and the IC50 (CCK receptor (pancreas); [8]) was under 0.1 µM.

For `CN1C(=O)[C@@H](NC(=O)Nc2ccc(Cl)cc2)N=C(c2ccccc2)c2ccccc21` [Example 233], the IC50 [1, 3] was 0.58 µM, the IC50 [2, 6] was 0.41 µM and the IC50 (CCK receptor (pancreas); [5]) was 0.026 µM.

Compound `CN1C(=O)[C@@H](NC(=O)C(C)(C)C)N=C(c2ccccc2)c2ccccc21` [Example 193, (S)-N-(2,3-Dihydro-1-methyl-2-oxo-5-phenyl-1H-1,4-benzodiazepin-3-yl]-2,2-dimethylpropanamide] has an IC50 [1, 7] of 13 µM, an IC50 [2, 6] of over 100 µM and an IC50 (CCK receptor (pancreas); [5]) of 1.6 µM.

Compound `CC(C)C(=O)N[C@H]1N=C(c2ccccc2)c2ccccc2N(C)C1=O` [Example 189, (S)-N-(2,3-Dihydro-1-methyl-2-oxo-5-phenyl-1H-1,4-benzodiazepin-3-yl)-2-methylpropanamide] has an IC50 [1, 7] of 73 µM, an IC50 [2, 6] of over 100 µM and an IC50 (CCK receptor (pancreas); [5]) of 1.1 µM.

`CN1C(=O)[C@@H](Cc2cn(C(=O)c3ccc(Cl)cc3)c3ccccc23)N=C(c2ccccc2F)c2ccccc21` [Example 45, 1,3-Dihydro-5-(2-fluorophenyl)-3(R)-[3'-(1'-p-chlorobenzyloylindolyl)methyl]-1-methyl-2H-1,4-benzodiazepin-2-one] was tested, and the IC50 ([1]; read-out: IC50 ^125 I-Gastrin Gastric Glands, 25° C., 30 minutes) was over 1000 µM, the IC50 [2, 4] was over 100 µM and the IC50 (CCK receptor (pancreas); read-out: IC50 ^125 I-CCK Pancreas; rat pancreas membranes, ^125 I-CCK-33, 37° C., 30 minutes) was 10.6 µM.

For `CCN(CC)C(=O)CN1C(=O)C(NC(=O)Nc2cccc(OC)c2)N=C(c2ccccc2)c2ccccc21` (stereo not drawn) [Example 285, 3-{[((3-Methoxyphenyl)amino)carbonyl)amino]-N,N-diethyl-2,3-dihydro-2-oxo-5-phenyl-1H-1,4-benzodiazepin-1-acetamide], the IC50 [1, 3] was 0.00026 µM, the IC50 [2, 9] was 0.00022 µM and the IC50 (CCK receptor (pancreas); [8]) was over 0.1 µM.

`Cc1cccc2c1NC(=O)C(NC(=O)c1cc3ccccc3[nH]1)N=C2c1ccccc1` (stereo not drawn) [Example 287, 3-N-(2,3-Dihydro-9-methyl-2-oxo-5-phenyl-1H-1,4-benzodiazeoin-3-yl)-1H-indole-2-carboxamide] was tested, and the IC50 [1, 3] was 0.95 µM, the IC50 [2, 9] was 1 µM and the IC50 (CCK receptor (pancreas); [8]) was 0.00074 µM.

With `CN1C(=O)C(NC(=O)c2ccsc2)N=C(c2ccccc2F)c2ccccc21` (stereo not drawn) [Example 238, N-(5-(2-Fluorophenyl)-2,3-dihydro-1-methyl-2-oxo-1H-1,4-benzodiazepin-3-yl)-3-thiophenecarboxamide] the IC50 [1, 7] was 11 µM, the IC50 [2, 6] was 26 µM and the IC50 (CCK receptor (pancreas); [5]) was 0.028 µM.

For `CC(C)CC(=O)N[C@H]1N=C(c2ccccc2)c2ccccc2N(C)C1=O` [Example 190, (S)-N-(2,3-Dihydro-1-methyl-2-oxo-5-phenyl-1H-1,4-benzodiazepin-3-yl)-3-methylbutanamide], the IC50 [1, 3] was 130 µM, the IC50 [2, 9] was over 100 µM and the IC50 (CCK receptor (pancreas); [8]) was 0.78 µM.

Compound `CSC1=N[C@@H](Cc2cn(C)c3ccccc23)C(=O)N(C)c2ccccc21` [Example 7, 1,3-Dihydro-3(S)-[3'-(1'-methylindolyl)methyl]-1-methyl-5-methylthio-2H-1,4-benzodiazepin-2-one] has an IC50 [1, 3] of over 100 µM, an IC50 [2, 9] of 100 µM and an IC50 (CCK receptor (pancreas); [5]) of over 100 µM.

Work on `CN1C(=O)C(NC(=O)Nc2cccc3ccccc23)N=C(c2ccccc2)c2ccccc21` (stereo not drawn) [Example 273, N-(2,3-Dihydro-1-methyl-2-oxo-5-phenyl-1H-1,4-benzodiazepin-3-yl)-N'-1-naphthalenyl-urea] yielded an IC50 [1, 3] of 0.057 µM, an IC50 [2, 9] of 0.079 µM and an IC50 (CCK receptor (pancreas); [8]) of 0.0086 µM.

Compound `CC(C)(C)OC(=O)N[C@@H](Cc1c[nH]c2ccccc12)C(=O)NC1N=C(c2ccccc2)c2ccccc2NC1=O` (mixture of isomers) [Example 77, 3(RS)-(Boc-L-tryptophanyl)amino-1,3-dihydro-5-phenyl-2H-1,4-benzodiazepin-2-one] has an IC50 [1, 7] of 250 µM, an IC50 [2, 6] of 20 µM and an IC50 (CCK receptor (pancreas); [8]) of 6 µM.

Work on `CCCCCc1ccc(C(=O)NC2N=C(c3ccccc3F)c3ccccc3N(C)C2=O)cc1` (stereo not drawn) [Example 223, N-(5-(2-Fluorophenyl)-2,3-dihydro-1-methyl-2-oxo-1H-1,4-benzodiazepin-3-yl)-4-pentylbenzamide] yielded an IC50 [1, 7] of over 100 µM, an IC50 [2, 6] of over 100 µM and an IC50 (CCK receptor (pancreas); [8]) of 0.14 µM.

Compound `CN1C(=O)C(NC(=O)Nc2cccc(Cl)c2)N=C(c2ccccc2)c2ccccc21` (stereo not drawn) [Example 265, N-(3-Chlorophenyl)-N'-(2,3-dihydro-1-methyl-2-oxo-5-phenyl-1H-1,4-benzodiazepin-3-yl)urea] has an IC50 [1, 7] of 0.0031 µM, an IC50 [2, 6] of 0.0098 µM and an IC50 (CCK receptor (pancreas); [5]) of 0.0082 µM.

Work on `CN1C(=O)C(NC(=O)Nc2ccc(Cl)c(Cl)c2)N=C(c2ccccc2)c2ccccc21` (stereo not drawn) [Example 257, N-(3,4-Dichlorophenyl)-N'-(2,3-dihydro-1-methyl-2-oxo-5-phenyl-1H-1,4-benzodiazepin-3-yl)-urea] yielded an IC50 [1, 7] of 0.048 µM, an IC50 [2, 6] of 0.067 µM and an IC50 (CCK receptor (pancreas); [5]) of 0.026 µM.
